In publication PMC10709440, “High-throughput ligand profile characterization in novel cell lines expressing seven heterologous insect olfactory receptors for the detection of volatile plant biomarkers” (Scientific Reports, 2023):
Read-outs that look alike come from different tables or passages of the source.

How the values were obtained:
Drosophila OR71a = target: T1, Drosophila OR71a (Drosophila melanogaster, UniProt Q9VUK5); experiment: Calcium ion fluorescence (GCaMP6) assay, OR71a stable HEK293 cell line; type: cell-based; details: for Average response: VUAA1-normalized response, mean of biological replicates; for OR71a Average response (VUAA1-normalized): 50 μM VUAA1 = 1
T1 construct: expressed in transfected cells
T1 sequence (Q9VUK5 1-378): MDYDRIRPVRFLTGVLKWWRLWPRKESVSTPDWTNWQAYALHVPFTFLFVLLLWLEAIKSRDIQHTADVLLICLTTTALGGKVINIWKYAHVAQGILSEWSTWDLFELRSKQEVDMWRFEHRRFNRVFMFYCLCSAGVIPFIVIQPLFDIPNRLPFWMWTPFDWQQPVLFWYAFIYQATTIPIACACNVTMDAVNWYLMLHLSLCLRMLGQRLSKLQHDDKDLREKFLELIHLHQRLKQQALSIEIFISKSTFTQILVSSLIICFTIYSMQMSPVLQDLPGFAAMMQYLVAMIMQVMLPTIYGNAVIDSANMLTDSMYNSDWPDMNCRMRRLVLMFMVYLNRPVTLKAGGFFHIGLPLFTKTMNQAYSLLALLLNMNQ
T1 sequence (Q9VNB5 1-486 partner): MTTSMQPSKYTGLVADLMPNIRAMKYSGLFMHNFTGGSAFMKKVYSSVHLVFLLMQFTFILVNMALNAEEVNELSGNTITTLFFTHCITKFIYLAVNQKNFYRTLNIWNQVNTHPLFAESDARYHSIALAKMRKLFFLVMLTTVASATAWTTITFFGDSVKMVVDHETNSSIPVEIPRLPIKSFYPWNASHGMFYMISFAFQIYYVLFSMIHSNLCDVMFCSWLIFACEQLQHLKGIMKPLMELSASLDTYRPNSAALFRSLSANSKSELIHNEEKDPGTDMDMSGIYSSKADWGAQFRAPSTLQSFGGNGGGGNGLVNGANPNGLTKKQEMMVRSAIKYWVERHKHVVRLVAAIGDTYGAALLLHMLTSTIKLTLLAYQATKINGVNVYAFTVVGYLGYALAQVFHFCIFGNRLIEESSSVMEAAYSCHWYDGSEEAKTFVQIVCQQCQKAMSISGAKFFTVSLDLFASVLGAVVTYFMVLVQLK
Description: (§1) These VUAA1 normalized ∆F values were used to compare the different receptors and ligands.
(§2) The concentration-dependent effect of the reference ligands on their cognate cell lines was examined in more detail. Twelve different ligand concentrations were measured on each cell line in an overall 0.01 μM to 100 μM concentration range with 5 repetitions with three technical replicates each time.
(§3) Twelve thousand to 18,000 cells were plated into each well of a black wall, transparent bottom 384-well microplate (Greiner) 48 h or 72 h before the measurements and were simultaneously treated with 1 μg/mL doxycycline. […] The plate has 24 columns, thus we could record responses in up to eight different cell lines in each plate. On the day of the experiment, the growth medium was replaced with 20 µL assay buffer/well (140 mM NaCl, 5 mM KCl, 2 mM CaCl2, 1 mM MgCl2, 5 mM HEPES-Na, 20 mM glucose, pH 7.3, 340 mOsm). […] Baseline fluorescence (F0) was recorded for 5 s, after which 7 µL VOC buffer (140 mM NaCl, 5 mM KCl, 2 mM CaCl2, 1 mM MgCl2, 5 mM HEPES-Na, 31 mM glucose, 0.1% DMSO, pH 7.3, 340 mOsm) was injected into each well in one row and the fluorescence response was recorded for an additional 30 s, at a rate of one read/sec. VOC solutions (VOC buffer with 4× concentration of the final measured VOC concentration, 9 µL/well was injected) were measured on the same wells in a second round with the same protocol. Each individual concentration of a specific VOC sample was recorded in three wells for the same cell line on the same microplate. The raw data were exported in xls file format, F0 and FMAX values, and the fluorescence intensity changes (∆F) were calculated in Excel (Microsoft) (Supplementary file Data summary.xlsx) using the following equation: ΔF=FMAX-F0/F0 (see also Fig. 1C). On each plate, we recorded the response of each cell line to 50 µM VUAA1. The average of these ∆F values of each cell line were used to calculate the VUAA1-normalized values for the rest of the plate, by dividing VOC response ∆F values by the average VUAA1 response ∆F value of the corresponding OR cell line. Each VOC-OR combination was measured three times as technical replicates. […] The average of these replicates were used as one ∆F and VUAA1-normalized ∆F in the following analysis.
(§4) In the next rows we tested the reference VOCs (or other VOCs known to activate the corresponding cell lines), in order to test if all cell lines are responsive. The remaining rows were used to test VOCs with unknown effect.
(§5) The recorded FMAX, F0, ∆F, VUAA1-normalized ∆F values, as well as the OR name, the name of the tested sample, and the final concentration for each well were copied into supplementary file Data summary.xlsx, that was used to summarize all the plates recorded. Here, the averages of the measurements were calculated for each receptor-VOC-concentration combination.

Drosophila OR98a = target: T2, Drosophila OR98a (Drosophila melanogaster, UniProt Q9VAZ3); experiment: Calcium ion fluorescence (GCaMP6) assay, OR98a stable HEK293 cell line; type: cell-based; details: for Average response: average of biological replicates, fraction of VUAA1 response
T2 construct: expressed in transfected cells
T2 sequence (Q9VAZ3 1-397): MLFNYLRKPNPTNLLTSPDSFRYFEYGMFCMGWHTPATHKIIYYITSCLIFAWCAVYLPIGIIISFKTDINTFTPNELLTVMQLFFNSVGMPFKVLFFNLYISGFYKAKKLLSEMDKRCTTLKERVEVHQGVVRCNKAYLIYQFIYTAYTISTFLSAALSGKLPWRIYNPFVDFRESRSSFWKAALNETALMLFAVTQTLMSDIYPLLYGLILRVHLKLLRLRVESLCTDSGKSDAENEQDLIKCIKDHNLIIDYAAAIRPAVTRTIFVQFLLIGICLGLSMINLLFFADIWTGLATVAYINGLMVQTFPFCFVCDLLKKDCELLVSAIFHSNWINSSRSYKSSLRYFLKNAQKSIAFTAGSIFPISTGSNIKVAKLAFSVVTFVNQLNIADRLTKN
T2 sequence (Q9VNB5 1-486 partner): T1 sequence (Q9VNB5 1-486 partner)
Description: as §1, §2, §3, §4, §5

[1] = ligand concentration 1 (unit not given), threshold 0.05, below shown as 0
[2] = ligand concentration 10 (unit not given), threshold 0.05, below shown as 0
[3] = ligand concentration 100 (unit not given), threshold 0.05, below shown as 0
[4] = HEK293, read-out: Average response
[5] = HEK293, read-out: OR71a response (VUAA1-normalized response)
[6] = concentration 1, normalized fluorescence change, values below 0.05 threshold given as 0
[7] = concentration 10, normalized fluorescence change, values below 0.05 threshold given as 0
[8] = concentration 100, normalized fluorescence change, values below 0.05 threshold given as 0
[9] = HEK293, read-out: OR98a Average response (VUAA1-normalized)
[10] = HEK293, read-out: OR98a response (VUAA1-normalized response)

| Compound | Average response (Drosophila OR71a; OR71a cell line, cc. 1 µM) | Average response (Drosophila OR71a; OR71a cell line, cc. 10 µM) | Average response (Drosophila OR71a; OR71a cell line, cc. 100 µM) | DF norm AVERAGE OR71a (Drosophila OR71a; [1]) | DF norm AVERAGE OR71a (Drosophila OR71a; [2]) | DF norm AVERAGE OR71a (Drosophila OR71a; [3]) | activation at 1 µM (Drosophila OR98a; [4]) [%] | activation at 10 µM (Drosophila OR98a; [4]) [%] | activation at 100 µM (Drosophila OR98a; [4]) [%] | DF norm AVERAGE OR98a (Drosophila OR98a; [1]) | DF norm AVERAGE OR98a (Drosophila OR98a; [2]) | DF norm AVERAGE OR98a (Drosophila OR98a; [3]) | DF norm AVERAGE OR71a (Drosophila OR71a; [6]) | DF norm AVERAGE OR71a (Drosophila OR71a; [7]) | DF norm AVERAGE OR71a (Drosophila OR71a; [8]) | DF norm AVERAGE OR98a (Drosophila OR98a; [6]) | DF norm AVERAGE OR98a (Drosophila OR98a; [7]) | DF norm AVERAGE OR98a (Drosophila OR98a; [8]) | OR71a response (VUAA1-normalized response) (Drosophila OR71a; VOC concentration 1 μM) | OR71a response (VUAA1-normalized response) (Drosophila OR71a; VOC concentration 10 μM) | also measured |
| --- | --- | --- | --- | --- | --- | --- | --- | --- | --- | --- | --- | --- | --- | --- | --- | --- | --- | --- | --- | --- | --- |
| Cc1ccc(C)cc1 [p-xylene] | 0.00 | 0.06 | 0.00 | 0 | 0.0615 | 0 | 0 | 2.51 | 4 | 0 | 0 | 0 | – | – | – | – | – | – | – | – | OR71a response (VUAA1-normalized) at 1 μM (Drosophila OR71a; OR71a cell line, VOC concentration 1 μM): 0.00; OR71a response (VUAA1-normalized) at 10 μM (Drosophila OR71a; OR71a cell line, VOC concentration 10 μM): 0.06; OR71a response (VUAA1-normalized) at 100 μM (Drosophila OR71a; OR71a cell line, VOC concentration 100 μM): 0.00; OR98a response (VUAA1-normalized) at 1 μM (Drosophila OR98a; OR98a cell line, VOC concentration 1 μM): 0.00; OR98a response (VUAA1-normalized) at 10 μM (Drosophila OR98a; OR98a cell line, VOC concentration 10 μM): 0.00; OR98a response (VUAA1-normalized) at 100 μM (Drosophila OR98a; OR98a cell line, VOC concentration 100 μM): 0.00 |
| CCCCCC(C)O (stereo not drawn) [2-heptanol] | 0.00 | 0.04 | 0.16 | – | – | – | 3.25 | 3.67 | 16 | – | – | – | 0 | 0 | 0.1631 | 0 | 0 | 0.1574 | – | – | OR71a Average response (VUAA1-normalized) (Drosophila OR71a; 1 μM VOC): 0.00; OR71a Average response (VUAA1-normalized) (Drosophila OR71a; 10 μM VOC): 0.04; OR71a Average response (VUAA1-normalized) (Drosophila OR71a; 100 μM VOC): 0.16; activation at 1 µM (Drosophila OR71a; [5]): 0%; activation at 10 µM (Drosophila OR71a; [5]): 0%; activation at 100 µM (Drosophila OR71a; [5]): 16%; activation at 1 µM (Drosophila OR98a; [9]): 3%; activation at 10 µM (Drosophila OR98a; [9]): 4%; activation at 100 µM (Drosophila OR98a; [9]): 16%; activation at 1 µM (Drosophila OR98a; [10]): 0%; activation at 10 µM (Drosophila OR98a; [10]): 0%; activation at 100 µM (Drosophila OR98a; [10]): 16% |
| C=C1[C@H]2CC[C@@H]3[C@H]2C(C)(C)CCC[C@]13C [(+)-longifolene] | 0.00 | 0.03 | 0.0431 | – | – | – | – | – | – | – | – | – | 0 | 0 | 0 | 0 | 0.1258 | 0 | 0.00 | 0.00 | OR71a response (VUAA1-normalized response) (Drosophila OR71a; VOC concentration 100 μM): 0.00; OR98a response (VUAA1-normalized response) (Drosophila OR98a; VOC concentration 1 μM): 0.00; OR98a response (VUAA1-normalized response) (Drosophila OR98a; VOC concentration 10 μM): 0.13; OR98a response (VUAA1-normalized response) (Drosophila OR98a; VOC concentration 100 μM): 0.00; Average response (Drosophila OR98a; cc. 1 µM, OR98a cell line): 0.0106; Average response (Drosophila OR98a; cc. 10 µM, OR98a cell line): 0.13; Average response (Drosophila OR98a; cc. 100 µM, OR98a cell line): 0.0176 |
| C=C(C)[C@H]1CC=C(C)CC1 [limonene] | 0.00 | 0.00 | 0.00 | 0 | 0 | 0 | – | – | – | 0 | 0 | 0 | – | – | – | – | – | – | 0.00 | 0.00 | OR71a response (VUAA1-normalized response) (Drosophila OR71a; VOC concentration 100 μM): 0.00; OR98a response (VUAA1-normalized response) (Drosophila OR98a; VOC concentration 1 μM): 0.00; OR98a response (VUAA1-normalized response) (Drosophila OR98a; VOC concentration 10 μM): 0.00; OR98a response (VUAA1-normalized response) (Drosophila OR98a; VOC concentration 100 μM): 0.00; Average response (Drosophila OR98a; cc. 1 µM, OR98a cell line): 0.00; Average response (Drosophila OR98a; cc. 10 µM, OR98a cell line): 0.02; Average response (Drosophila OR98a; cc. 100 µM, OR98a cell line): 0.0268 |
